Legend:
bacterial bioburden = test: Bacterial bioburden of heme samples following HTST treatment; type: cell-based; details: 15 mM and 35 mM cysteine, heme samples at pH 9.5
[1] = test system: aerobic plate count (gram negative and gram positive bacteria); test: Refrigerated shelf-life study of HTST-treated soy leghemoglobin, aerobic plate count; type: cell-based; details: HTST-treated soy leghemoglobin (LegH)
Excerpt: APC captures both gram negative and gram positive bacteria, whereas lactic acid bacteria (LAB) captures gram positive bacteria (FIG. 1B).

E. coli = test: Pathogen reduction during HTST in leghemoglobin samples; type: cell-based
Excerpt: (§1) Salmonella and E. coli are gram negative bacteria, and Listeria is gram positive. Addition of cysteine reduced the CFU/g of E. coli even in the absence of heat.
(§2) FIGS. 2A, 2B, and 2C are tables showing the reduction of pathogens in leghemoglobin samples with and without cysteine.

Listeria = test: as above; type: cell-based; details: cysteine treatment during HTST
Excerpt: as §1, §2

Salmonella = test: as above; type: cell-based; details: cysteine treatment during HTST
Excerpt: as §1, §2

LegH = molecular target: T1, LegH (Glycine max, UniProt P02236); test: LegH concentration after HTST of LegH Prep by UPLC (thermostability); type: physicochemical, soy; details: HTST 20 seconds, 68-72° C.
T1 construct: made in house; host or cells: Pichia
T1 sequence (P02236 whole entry): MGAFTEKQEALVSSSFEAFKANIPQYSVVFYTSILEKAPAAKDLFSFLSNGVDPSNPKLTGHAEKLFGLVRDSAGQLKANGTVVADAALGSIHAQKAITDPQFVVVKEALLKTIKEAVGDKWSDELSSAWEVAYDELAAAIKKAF
Description: This decrease in concentration is due to LegH aggregating or denaturing in response to heat. […] For UPLC, there is a resolved peak at the LegH retention time that can be tracked by 415 nm absorbance but the integration is performed on the 280 nm peak at that position.

[2] = Percent suspended solids after HTST of LegH Prep; type: physicochemical; details: HTST 20 seconds, 68-72° C.
Excerpt: Suspended solid formation is likely due to aggregation or denaturation of the Pichia proteins within LegH Prep in response to heat. […] Increased suspended solids changes the physical properties of the protein solution and are typically associated with increased viscosity.

[3] = Colorimetric properties (L*c*h) of LegH Prep after HTST; type: physicochemical; details: HTST 20 seconds, 68-72° C.
Description: This color decline is due to LegH denaturation as well as potentially off-color formation produced by Pichia proteins in response to heat. […] FIG. 6 was performed at 15 mM cysteine, a temperature of 65° C., and a duration of 20 seconds. Performing HTST in the presence of cysteine results in less change in both chroma and hue angle show a decrease after HTST compared to performing HTST in the absence of cysteine.

SMILES: N[C@@H](CS)C(=O)O [cysteine, L-cysteine]
- bacterial bioburden CFU/g following HTST treatment (bacterial bioburden): decreases bacterial bioburden
- aerobic plate count (APC) stability [1]: cysteine-dependent increase
- CFU/g reduction of E. coli (E. coli; cysteine treatment during HTST): significantly increased
- CFU/g of E. coli (E. coli; in the absence of heat): reduced
- CFU/g reduction of Listeria (Listeria): significantly increased
- CFU/g reduction of Salmonella (Salmonella): significantly increased
- decrease in LegH concentration after HTST (LegH): diminished in a dose-dependent manner
- increase in percent suspended solids (% SS) after HTST [2]: diminished in a dose-dependent manner
- decline in L*c*h after HTST [3]: diminished in a dose-dependent manner

— patent publication US20250241328A1, “REDUCTANT TREATMENT METHODS FOR FOOD PRODUCT PRECURSORS” (Impossible Foods Inc., priority 2022, published 2025)
